# In paper PMC6571673, “Cytostatic and Cytotoxic Natural Products against Cancer Cell Models” (Molecules, 2019):
# Assays:
# [1] = test system: de novo protein synthesis in MDA-MB-231; experiment: EZClick in-cell-click de novo protein synthesis assay; assay type: cell-based, human; conditions: MDA-MB-231, 2 h exposure time
# Source text: Protein synthesis is essential in cell growth, proliferation, signaling, differentiation, and death. […] The assay includes a robust chemical method based on an alkyne containing o-propargyl-puromycin probe, which stops translation by forming covalent conjugates with nascent polypeptide chains. Truncated polypeptides are rapidly turned over by the proteasome and can be detected based on the subsequent click reaction with a fluorescent azide. To test whether these compounds (4–14) induced de novo protein synthesis inhibition, compounds were tested for a 2 h exposure time, under the same conditions as the known protein synthesis inhibitor cycloheximide (CHX) in MDA-MB-231 cell model following an in-cell-click de novo protein synthesis assay.
# Biovision’s EZClick™ protein synthesis monitoring assay kit (EZClick™ Global Protein Synthesis Assay Kit, Catalog # K715-100, Milpitas, CA, USA) was used according to manufacturer’s protocol. The assay was conducted in 8-well chambered coverslips (ibidi GmbH µ-slide # 80826, Martinsried, Germany). Cells were plated at 2 × 10^4 per well and incubated at 37 °C for 12 h. Then, the cells were treated with compounds for 1.5 h and processed and stained according to protocol (representative images shown in Figure 4). Protein synthesis activity is shown in red, DNA staining is shown in green. Cycloheximide (CHX) was used as a positive control and DMSO as the negative control. Images shown were taken with a Marianas CSU-X spinning disk confocal imaging system (3i, Denver, CO, USA) configured with a Zeiss Axio Observer microscope (Carl Zeiss Inc., Thornwood, NY, USA) with diode lasers, at 63× magnification and resolution of 512 × 512 pixels (3i). For each field of view, an image stack consisting of 20 optical sections were taken at 63× magnification. The total intensity of red and green staining was quantified for the entire image stack. Six fields of view were analyzed per condition. Images shown represent a single optical section for each field of view. For each stack, the red intensity (protein synthesis) was adjusted to the green intensity (DNA content) in each image. The numbers from six images were used to calculate the average and standard deviation for each condition. Numbers were normalized to the negative control value arbitrarily set to one. The Slide viewer 6 software package was used for rendering and analysis of the images.
# BJ = experiment: CTG viability assay (CellTiter-Glo, 72 h); assay type: cell-based, human; conditions: Homo sapiens, BJ; CellTiter-Glo, 72 h; non-cancerous cells
# Protocol: (§1) All human cell lines were incubated at 37 °C in a 5% CO2 atmosphere and maintained under sterile conditions. Cells were tested for Mycoplasma (Lonza, Alpharetta, GA, USA) using the manufacturer’s conditions prior to experiments. Cell lines were purchased from American Type Culture Collection (ATCC, Manassas, VA, USA) or Leibniz-Institute Deutsche Sammlung von Mikroorganismen und Zellkulturen GmbH (DSMZ, Braunschweig, Germany) and cultured without antibiotics unless stated. Leukemia cells were cultured in RPMI and supplemented with 10% fetal bovine serum (FBS, Hyclone, Logan, UT, USA). SUP-B15, and KOPN-8 lines were cultured in RPMI supplemented with 10% FBS (Hyclone), 1% GlutaMAX™, 1% Pen/Step, and 0.1% β-mercaptoethanol. BJ cells were cultured in EMEM media supplemented with 10% FBS (Hyclone). Breast cancer cells (MDA-MB-231 & SUM149) were cultured in DMEM and Ham’s F12 respectively, supplemented with 10% FBS, 1% GlutaMAX™, 1% Pen/Step, and 2 µM cortisol/1 µg/mL insulin for SUM149. Both cells were grown to 80% confluence densities as recommended by ATCC. PBMCs were supplemented with concanavalin-A (5 μg/mL) and IL-2 (50 U/ml). To test general cytotoxicity, the following cell numbers were used for 384 well plates: KOPN-8 (ACC 552, infant human B cell precursor acute lymphoblastic leukemia with MLL-MLLt1/ENL fusion, 1000 cells/well), SUP-B15 (ACC389, human B cell precursor acute lymphoblastic leukemia of pediatric second relapse carrying the ALL-variant (m-bcr) of BCR-ABL1 fusion gene (e1-a2), 1600 cells/well), NALM-06 (DSMZ ACC128, non-T/non-B ALL at relapse with P15INK4B and P16INK4A deletions, 1200 cells/well), UoC-B1 (pediatric BCP-ALL at second relapse with TCF3/E2A-HFL fusion, 1000 cells/well), BJ (CRL-2522, normal human foreskin fibroblast cells, 400 cells/well) and PBMCs (periphery blood monocyte cells from healthy donors, IBC#BDC046, 10,000 cells/well).
# (§2) Cytotoxicity evaluation was performed using the CellTiter-Glo Luminescent Cell Viability Assay kit (G7570, Promega, Madison, WI, USA), according to the manufacturer’s instructions. Briefly, the cell concentrations used were experimentally determined to ensure logarithmic growth during the 72-h duration of the experiment, and avoid adverse effects on cell growth by DMSO exposure. 1 × 10^3–4.8 × 10^3 or 4 × 10^2–1.2 × 10^3 cells/well were seeded in 96 or 384-well white flat-bottomed plates (3610 or 8804BC, Corning, Corning, NY, USA) in 100 µL or 30 µL/well, respectively. The plates were incubated at 37 °C in 5% CO2 for 24 h before drugging. Test compounds (10 mM in DMSO) in nine 3-fold serial dilutions were dispensed via pintool (Biomek liquid handler, Beckman, Indianapolis, USA) to assay plates. The final concentration of DMSO was 0.3% (v/v) in each well. The positive controls included staurosporine (10 μM), and gambogic acid (10 μM). The plates were incubated for 72 h at 37 °C in 5% CO2, then quenched with CellTiter-Glo® (Promega, Madison, WI, USA, 50 µL/96 or 30 µL/384), centrifuged at 1000 rpm for 1 min and incubated at RT for 20 min. Luminescence was recorded with a plate reader (Envision, Perkin Elmer, Waltham, MA, USA). The mean luminescence of each experimental treatment group was normalized as a percentage of the mean intensity of untreated controls. EC50 values were calculated by Pipeline Pilot software (Accelrys, Enterprise Platform, San Diego, CA, USA).
# SUP-B15 [2] = experiment: CTG viability assay (CellTiter-Glo, 72 h); assay type: cell-based, human; conditions: Homo sapiens
# Protocol: as §1, §2
# KOPN-8 [3] = experiment: CTG viability assay (CellTiter-Glo, 72 h); assay type: cell-based; conditions: Homo sapiens, mean ± SEM of triplicates
# Protocol: as §1, §2
# PBMC = experiment: CTG viability assay (CellTiter-Glo, 72 h); assay type: cell-based; conditions: Homo sapiens, non-cancerous cells
# Protocol: as §1, §2
# UoC-B1 = experiment: CTG viability assay (CellTiter-Glo, 72 h); assay type: cell-based; conditions: Homo sapiens, mean ± SEM of triplicates
# Protocol: as §1, §2
# NALM-06 = experiment: CTG viability assay (CellTiter-Glo, 72 h); assay type: cell-based; conditions: Homo sapiens, mean ± SEM of triplicates
# Protocol: as §1, §2
# KOPN-8 [4] = experiment: Cell cycle analysis (PI DNA content, flow cytometry); assay type: cell-based, human; conditions: KOPN-8, 24 h; silvestrol 5 µM, 8 5 µM, 9 10 µM, 10 5 µM, 12 10 µM, 13 10 µM
# Protocol: (§3) The samples were probed with AnnexinV-FITC (Roche/Boehringer Mannheim, Indianapolis, IN, USA) according to the manufacturer’s instructions. KOPN-8 or SUB-P15 cells were plated (1.00 × 10^6 cells/plate) and incubated for 12 h and incubated at 37 °C. Then, cells were treated with compounds or controls for 24 h. Cells were stained with AnnexinV-FITC, PI and the staining profiles were determined with FACScan and Cell-Quest software. For cellular DNA content, the same cell treatment as above was performed. Then, cells were fixed in cold 75% ethanol, treated with RNase and then stained with PI solution (50 µg/mL). Cell cycle distribution was analyzed with the FACSCalibur analyzer (BD Biosciences, Franklin Lakes, NJ, USA) and Cell-Quest software. The percentage of DNA content at different phases of the cell cycle was analyzed with ModFit-software (version 5.0, Verity Software House, Topsham, ME, USA).
# SUP-B15 [5] = experiment: as above; assay type: cell-based, human; conditions: SUP-B15, 24 h
# Protocol: as §3
# KOPN-8 [6] = experiment: Annexin V/PI apoptosis flow cytometry assay; assay type: cell-based, human; conditions: KOPN-8, 24 h; for live cells (Annexin-, PI-): 8 5 µM, 9 10 µM, 10 5 µM, 12 10 µM, 13 10 µM; for late apoptotic state or cell death: 10 µM
# Protocol: as §3
# SUP-B15 [7] = experiment: Annexin V/PI apoptosis flow cytometry assay; assay type: cell-based, human; conditions: SUP-B15, 24 h; for live cells (Annexin-, PI-): 8 5 µM, 9 10 µM, 10 5 µM, 12 10 µM, 13 10 µM; for late apoptotic state or cell death: 10 µM
# Protocol: as §3
# [8] = SUP-B15, mean ± SEM of triplicates
# [9] = SUP-B15, 72 h, mean ± SEM of triplicates
structure (smiles),measurement,setting,value
COc1ccc(CC2c3cc(O)c(OC)cc3CCN2C)cc1O (centres unmarked) [Compound 4],de novo protein synthesis inhibition,[1],Partial protein synthesis inhibition
same,EC50,BJ,> 46.8 µM
same,EC50,SUP-B15 [2]; [8],38 ± 6.1 µM
same,EC50,KOPN-8 [3],32.1 ± 3.5 µM
same,EC50,PBMC,> 86.8 µM
same,EC50,UoC-B1,> 23.4 µM
same,EC50,NALM-06,18.3 ± 2.5 µM
COc1cc2c(cc1O)[C@H]1Cc3ccc(OC)c(O)c3CN1CC2 [Compound 5],EC50,BJ,> 43.3 µM
same,EC50,SUP-B15 [2]; [8],29 ± 3.7 µM
same,EC50,KOPN-8 [3],32 ± 7.6 µM
same,EC50,PBMC,> 43.3 µM
same,EC50,UoC-B1,17.3 ± 3.8 µM
same,EC50,NALM-06,8.38 ± 1.8 µM
CCC1CN2CCc3cc(OC)c(OC)cc3C2CC1CC1NCCc2cc(O)c(OC)cc21 (centres unmarked) [Compound 6],EC50,BJ,> 43.3 µM
same,EC50,SUP-B15 [2]; [8],9.83 ± 0.5 µM
same,EC50,KOPN-8 [3],0.16 ± 0.05 µM
same,EC50,PBMC,> 43.3 µM
same,EC50,UoC-B1,> 21.6 µM
same,EC50,NALM-06,18.4 ± 3.1 µM
"COc1ccc2c(c[n+](C)c3c4cc5c(cc4ccc23)OCO5)c1OC [Compound 8, chelerythrine]",de novo protein synthesis inhibition,[1],no inhibition
same,cell cycle effect,KOPN-8 [4],significant cell arrest in G1/G0
same,increase in the percentage of cells in S phase,SUP-B15 [5]; 5 µM,~ 20%
same,reduction in the percentage of cells in G2/M phase,SUP-B15 [5]; 5 µM,~ 10%
same,"live cells (Annexin-, PI-)",KOPN-8 [6],not viable
same,"live cells (Annexin-, PI-)",SUP-B15 [7],not viable
same,EC50,BJ,29.8 µM
same,EC50,SUP-B15 [2]; [9],2.77 ± 0.36 µM
same,EC50,KOPN-8 [3],0.821 ± 0.22 µM
same,EC50,PBMC,7.89 µM
same,EC50,UoC-B1,1.96 ± 0.28 µM
same,EC50,NALM-06,1.9 ± 0.2 µM
CC(C)(O)CC[C@@H](O)[C@](C)(O)[C@H]1CC[C@@]2(O)C3=CC(=O)[C@@H]4C[C@@H](O)[C@@H](O)C[C@]4(C)[C@H]3CC[C@]12C [Compound 11],de novo protein synthesis inhibition,[1],no protein synthesis inhibition
same,EC50,BJ,> 43.3 µM
same,EC50,SUP-B15 [2]; [9],29 ± 6 µM
same,EC50,KOPN-8 [3],> 43.3 µM
same,EC50,PBMC,> 43.3 µM
same,EC50,UoC-B1,> 21.6 µM
same,EC50,NALM-06,> 43.3 µM
"C[C@H]([C@H](O)CCC(C)(C)O)[C@H]1CC[C@@]2(O)C3=CC(=O)[C@@H]4C[C@@H](O)[C@@H](O)C[C@]4(C)[C@H]3CC[C@]12C [Compound 12, ecdysone]",de novo protein synthesis inhibition,[1],little to no protein synthesis inhibition
same,cell cycle effect,KOPN-8 [4],minimal effect on the cell cycle
same,reduction in the percentage of cells in the S phase,SUP-B15 [5]; 10 µM,~ 10%
same,cell cycle effect,"SUP-B15 [5]; silvestrol 5 µM, 8 5 µM, 9 10 µM, 10 5 µM, 12 10 µM, 13 10 µM",arrested G2/M
same,late apoptotic state or cell death,KOPN-8 [6],did not capture significant increase of late apoptotic state or cell death
same,"live cells (Annexin-, PI-)",KOPN-8 [6],small decrease in live cells
same,late apoptotic state or cell death,SUP-B15 [7],did not capture significant increase of late apoptotic state or cell death
same,"live cells (Annexin-, PI-)",SUP-B15 [7],small decrease in live cells
same,EC50,BJ,> 43.3 µM
same,EC50,SUP-B15 [2]; [8],20.1 ± 3.2 µM
same,EC50,KOPN-8 [3],> 43.3 µM
same,EC50,PBMC,> 43.3 µM
same,EC50,UoC-B1,> 21.6 µM
same,EC50,NALM-06,> 43.3 µM
"CC(C)CC[C@@H](O)[C@](C)(O)[C@H]1CC[C@@]2(O)C3=CC(=O)[C@]4(O)C[C@@H](O)[C@@H](O)C[C@]4(C)[C@H]3[C@H](O)C[C@]12C [Compound 13, muristerone A]",de novo protein synthesis inhibition,[1],little to no protein synthesis inhibition
same,cell cycle effect,KOPN-8 [4],minimal effect on the cell cycle
same,late apoptotic state or cell death,KOPN-8 [6],did not capture significant increase of late apoptotic state or cell death
same,late apoptotic state or cell death,SUP-B15 [7],did not capture significant increase of late apoptotic state or cell death
same,EC50,BJ,> 43.3 µM
same,EC50,SUP-B15 [2]; [9],9.5 ± 2.1 µM
same,EC50,KOPN-8 [3],> 43.3 µM
same,EC50,PBMC,> 43.3 µM
same,EC50,UoC-B1,> 21.6 µM
same,EC50,NALM-06,0.518 ± 0.15 µM
